Results as given in patent US7129381B2, “Glucopyranosyloxybenzylbenzene derivatives, medicinal compositions containing the same and intermediates in the production thereof” (Kissei Pharmaceutical Co., Ltd., priority 2000, dated 2006).

Test system: ICR mice
Assay: Acute toxicity test
Assay type: in vivo
Conditions: 300 mg/kg subcutaneous, male ICR mice, 5 animals, observation for 24 hours
Method: A mixture (saline:polyethylene glycol 400:ethanol =5:4:1) was added to a test compound to prepare 30 mg/mL solution. As experimental animals, 5 week old male ICR mice (CLEA JAPAN, INC. 29–35 g, 5 animals in each group), which were fasted for 4 hours, were used. The above solution was subcutaneously administered at a dose of 10 mL/kg (300 mg/kg) to the above experimental animals and then observation for 24 hours was performed.

In the case of `COc1ccc(Cc2c(C)cc(C)cc2O[C@@H]2O[C@H](CO)[C@@H](O)[C@H](O)[C@H]2O)cc1` [Example 37, 2-(4-Methoxybenzyl)-3,5-dimethylphenyl β-D-glucopyranoside], the Death number is reported as 0/5.
